From patent US20260013504A1, “HERBICIDAL MIXTURE, HERBICIDAL COMPOSITION, METHOD, USE, AND KITS FOR CONTROLLING UNDESIRABLE VEGETATION” (ADAMA AGAN LTD., priority 2022, published 2026)

Tests used:
Format in all cases: in vivo
Lolium multiflorum Lamk = test: Pot experiment, soil treatment, control of Lolium multiflorum Lamk (fresh weight, Colby); details: mixtures: both AIs at these rates, after 35 days
Description: (§1) Referring to an article of Colby, S. R. i.e., Calculation of the synergistic and antagonistic response of herbicide combinations.
(§2) E0-E value is calculated to evaluate the combined effect of pyroxasulfone and the second herbicide selected from the group consisting of fluorochloridone, aclonifen, diflufenican and terbutryn on the selected weeds.
(§3) In this Example, the herbicidal activity of treatments by a mixture of pyroxasulfone and the second herbicide selected from the group consisting of fluorochloridone, aclonifen, diflufenican and terbutryn for controlling Aegilops tauschii was investigated by a pot experiment. This Example was carried out in accordance with “NY/T 1155.4-2006 Guidelines for Indoor Bioassay Tests of Pesticides, Herbicides Part 4: Activity Determination Tests, Stem and Leaf Spray Method”. • Source of the agrochemicals tested were: • Pyroxasulfone: pyroxasulfone (850g/Kg, WG) from Adama Agan LTD. • Fluorochloridone: fluorochloridone (250 g/L, EC) from Adama Agan LTD. • Aclonifen: aclonifen (600 g/L, SC) from Adama Agan LTD. • Diflufenican: diflufenican (50g/Kg, WP) from Bayer. • Terbutryn: terbutryn (50g/Kg, SC) from Zhejiang Zhongshan Chemical Industry Group Co., Ltd. • Cultivation of test materials: The test soil was formed by mixing the 20 cm layer loam on the ground surface and the culture medium in a ratio of 3:1 as cultivation soil. Weeds were cultivated in an artificial climate chamber. The daytime and nighttime temperatures were set at 22° C. and 19° C., respectively, and the illumination was set at daytime: dark time 12h: 12h.
(§4) A certain amount of Aegilops tauschii seeds were sown in a plastic pot with a diameter of 9 cm, covering with 1-2 mm soil, and putting them in an enamel dish filled with water. The bottom infiltration method was used to water them, the agrochemicals tested in this Example were applied on the second day after sowing Aegilops tauschii seeds.
(§5) Spraying treatment: ASS-4 automatic control spraying system with a fan-shaped nozzle was used indoors to spray the agrochemicals, the running speed was adjusted based on nozzle pressure, flow rate, etc. to spray 50 mL of liquid of agrochemicals on the actual spray area of 1.1 m2 (equivalent to 30 liters per mu), arranging the plastic pots to be processed on the spraying table evenly, and spraying evenly. The spraying pressure was 0.35 MPa, and the flow rate of the fan-shaped nozzle was 800 mL/min, spraying in order from low dosage to high dosage. Each treatment was repeated 3 times. After spraying, the plastic pots were dried for one day, placed in an artificial climate chamber, and watered regularly to keep moist.
(§6) Weed investigation method and time: after applying the agrochemicals, the symptoms of weed damage (such as growth inhibition, chlorosis, deformity, etc.) were recorded in detail. After 35 days, the fresh weight of aerial part of the weeds in each treatment was weighed, and the measured fresh weight inhibition rate and the measured fresh weight survival rate for each treatment were calculated according to the following equations: […]
Example 2 was conducted in substantially the same way as Example 1, except that Lolium multiflorum Lamk was used instead of Aegilops tauschii.

Solanum nigrum = test: Pot experiment (glass greenhouse), soil treatment, control of Solanum nigrum (fresh weight, Colby)
Description: as §1, §2, §3, §4, §5, §6
Example 6 was substantially conducted in the same as Example 1, except that (1) Solanum nigrum was used instead of Aegilops tauschii, (2) in “Cultivation of test materials” part, Solanum nigrum was cultivated in a glass greenhouse instead of an artificial climate chamber at a temperature of 25 to 33° C. with a natural illumination, and (3) in “Spraying treatment” part, after spraying and drying, the plastic pots were placed in a glass greenhouse instead of an artificial climate chamber.

Lithospermum arvense = test: Pot experiment, soil treatment, control of Lithospermum arvense (fresh weight, Colby)
Description: as §1, §2, §3, §4, §5, §6
Example 5 was conducted substantially the same way as Example 1, except that Lithospermum arvense was used instead of Aegilops tauschii.

Galium aparine = test: Pot experiment, soil treatment, control of Galium aparine (fresh weight, Colby)
Description: as §1, §2, §3, §4, §5, §6
Example 4 was conducted substantially the same way as Example 1, except that Galium aparine was used instead of Aegilops tauschii.

Aegilops tauschii = test: Pot experiment, soil treatment, control of Aegilops tauschii (fresh weight, Colby); details: mixtures: both AIs at these rates, after 35 days
Description: as §1
E0 is the theoretical fresh weight survival rate for the mixture of pyroxasulfone and the second herbicide selected from the group consisting of fluorochloridone, aclonifen, diflufenican and terbutryn;
X is the measured fresh weight survival rate for pyroxasulfone used alone at the same dosage as that in the mixture;
Y is the measured fresh weight survival rate for the second herbicide selected from the group consisting of fluorochloridone, aclonifen, diflufenican and terbutryn used alone at the same dosage as that in the mixture;
E is the measured fresh weight survival rate for the mixture of pyroxasulfone and the second herbicide selected from the group consisting of fluorochloridone, aclonifen, diflufenican and terbutryn.
as §2, §3, §4, §5, §6

Bromus japonicus = test: Pot experiment, soil treatment, control of Bromus japonicus (fresh weight, Colby); details: mixtures: both AIs at these rates, after 35 days
Description: as §1, §2, §3, §4, §5, §6
Example 3 was conducted in substantially the same way as Example 1, except that Bromus japonicus was used instead of Aegilops tauschii.

[1] = g ai/ha: pyroxasulfone 11.25, fluorochloridone 31.25, aclonifen 150, diflufenican 14.0625, terbutryn 140.625
[2] = g ai/ha: pyroxasulfone 22.5, fluorochloridone 62.5, aclonifen 300, diflufenican 28.125, terbutryn 281.25
[3] = g ai/ha: pyroxasulfone 45, fluorochloridone 125, aclonifen 600, diflufenican 56.25, terbutryn 562.5
[4] = g ai/ha: pyroxasulfone 90, fluorochloridone 250, aclonifen 1200, diflufenican 112.5, terbutryn 1125
[5] = g ai/ha: pyroxasulfone 180, fluorochloridone 500, aclonifen 2400, diflufenican 225, terbutryn 2250
[6] = g ai/ha: pyroxasulfone 360, fluorochloridone 1000, aclonifen 4800, diflufenican 450, terbutryn 4500

`Nc1c([N+](=O)[O-])ccc(Oc2ccccc2)c1Cl` [aclonifen, 2-chloro-6-nitrio-3-phenoxyaniline] was tested, and the “Measured fresh weight inhibition rate (%)” value (Lolium multiflorum Lamk; [1]) was 89.1%, the “Measured fresh weight survival rate (%) - E” value (Lolium multiflorum Lamk; [1]) was 10.9% and the “Measured fresh weight inhibition rate (%)” value (Lolium multiflorum Lamk; [2]) was 96.4%. The “Measured fresh weight survival rate (%) - E” value (Lolium multiflorum Lamk; [2]) was 3.6%, the “Measured fresh weight inhibition rate (%)” value (Lolium multiflorum Lamk; [3]) was 99.5% and the “Measured fresh weight survival rate (%) - E” value (Lolium multiflorum Lamk; [3]) was 0.5%. For the same compound, the “Measured fresh weight inhibition rate (%)” value (Lolium multiflorum Lamk; [4]) was 100.0%, the “Measured fresh weight survival rate (%) - E” value (Lolium multiflorum Lamk; [4]) was 0.0% and the “Measured fresh weight inhibition rate (%)” value (Lolium multiflorum Lamk; [5]) was 100.0%. For the same compound, the “Measured fresh weight survival rate (%) - E” value (Lolium multiflorum Lamk; [5]) was 0.0%, the “Measured fresh weight inhibition rate (%)” value (Lolium multiflorum Lamk; [6]) was 100.0% and the “Measured fresh weight survival rate (%) - E” value (Lolium multiflorum Lamk; [6]) was 0.0%. The “Measured fresh weight survival rate (%) - E” value (Solanum nigrum; 150 g ai/ha) was 87.1%, the “Measured fresh weight survival rate (%) - E” value (Solanum nigrum; 300 g ai/ha) was 82.7% and the “Measured fresh weight survival rate (%) - E” value (Solanum nigrum; 600 g ai/ha) was 69.4%. For the same compound, the “Measured fresh weight survival rate (%) - E” value (Solanum nigrum; 1200 g ai/ha) was 56.9%, the “Measured fresh weight survival rate (%) - E” value (Solanum nigrum; 2400 g ai/ha) was 26.3% and the inhibition at 150 g/ha (Solanum nigrum; Solanum nigrum, soil, 150 g ai/ha, read-out: Measured fresh weight inhibition rate (%)) was 12.9%. The inhibition at 300 g/ha (Solanum nigrum; Solanum nigrum, soil, 300 g ai/ha, read-out: Measured fresh weight inhibition rate (%)) was 17.3%, the inhibition at 600 g/ha (Solanum nigrum; Solanum nigrum, soil, 600 g ai/ha, read-out: Measured fresh weight inhibition rate (%)) was 30.6% and the inhibition at 1200 g/ha (Solanum nigrum; Solanum nigrum, soil, 1200 g ai/ha, read-out: Measured fresh weight inhibition rate (%)) was 43.1%. The inhibition at 2400 g/ha (Solanum nigrum; Solanum nigrum, soil, 2400 g ai/ha, read-out: Measured fresh weight inhibition rate (%)) was 73.7%, the “Measured fresh weight survival rate (%) - E” value (Lithospermum arvense; 150 g ai/ha) was 43.5% and the “Measured fresh weight survival rate (%) - E” value (Lithospermum arvense; 300 g ai/ha) was 13.0%. For the same compound, the “Measured fresh weight survival rate (%) - E” value (Lithospermum arvense; 600 g ai/ha) was 1.4%, the “Measured fresh weight survival rate (%) - E” value (Lithospermum arvense; 1200 g ai/ha) was 0.0% and the “Measured fresh weight survival rate (%) - E” value (Lithospermum arvense; 2400 g ai/ha) was 0.0%. For the same compound, the inhibition at 150 g/ha (Lithospermum arvense; Buglossoides arvensis, soil, 150 g ai/ha, read-out: Measured fresh weight inhibition rate (%)) was 56.5%, the inhibition at 300 g/ha (Lithospermum arvense; Buglossoides arvensis, soil, 300 g ai/ha, read-out: Measured fresh weight inhibition rate (%)) was 87% and the inhibition at 600 g/ha (Lithospermum arvense; Buglossoides arvensis, soil, 600 g ai/ha, read-out: Measured fresh weight inhibition rate (%)) was 98.6%. The inhibition at 1200 g/ha (Lithospermum arvense; Buglossoides arvensis, soil, 1200 g ai/ha, read-out: Measured fresh weight inhibition rate (%)) was 100%, the inhibition at 2400 g/ha (Lithospermum arvense; Buglossoides arvensis, soil, 2400 g ai/ha, read-out: Measured fresh weight inhibition rate (%)) was 100% and the “Measured fresh weight survival rate (%) - E” value (Galium aparine; 150 g ai/ha) was 79.5%. The “Measured fresh weight survival rate (%) - E” value (Galium aparine; 300 g ai/ha) was 63.0%, the “Measured fresh weight survival rate (%) - E” value (Galium aparine; 600 g ai/ha) was 9.6% and the “Measured fresh weight survival rate (%) - E” value (Galium aparine; 1200 g ai/ha) was 0.0%. The “Measured fresh weight survival rate (%) - E” value (Galium aparine; 2400 g ai/ha) was 0.0%, the inhibition at 150 g/ha (Galium aparine; Galium aparine, soil, 150 g ai/ha, read-out: Measured fresh weight inhibition rate (%)) was 20.5% and the inhibition at 300 g/ha (Galium aparine; Galium aparine, soil, 300 g ai/ha, read-out: Measured fresh weight inhibition rate (%)) was 37%. It also gave an inhibition at 600 g/ha (Galium aparine; Galium aparine, soil, 600 g ai/ha, read-out: Measured fresh weight inhibition rate (%)) of 90.4%, an inhibition at 1200 g/ha (Galium aparine; Galium aparine, soil, 1200 g ai/ha, read-out: Measured fresh weight inhibition rate (%)) of 100% and an inhibition at 2400 g/ha (Galium aparine; Galium aparine, soil, 2400 g ai/ha, read-out: Measured fresh weight inhibition rate (%)) of 100%. For the same compound, the “Measured fresh weight inhibition rate (%)” value (Aegilops tauschii; [1]) was 6.1%, the “Measured fresh weight survival rate (%) - E” value (Aegilops tauschii; [1]) was 93.9% and the “Measured fresh weight inhibition rate (%)” value (Aegilops tauschii; [2]) was 25.0%. For the same compound, the “Measured fresh weight survival rate (%) - E” value (Aegilops tauschii; [2]) was 75.0%, the “Measured fresh weight inhibition rate (%)” value (Aegilops tauschii; [3]) was 26.2% and the “Measured fresh weight survival rate (%) - E” value (Aegilops tauschii; [3]) was 73.8%. The “Measured fresh weight inhibition rate (%)” value (Aegilops tauschii; [4]) was 70.1%, the “Measured fresh weight survival rate (%) - E” value (Aegilops tauschii; [4]) was 29.9% and the “Measured fresh weight inhibition rate (%)” value (Aegilops tauschii; [5]) was 74.4%. The “Measured fresh weight survival rate (%) - E” value (Aegilops tauschii; [5]) was 25.6%, the “Measured fresh weight inhibition rate (%)” value (Aegilops tauschii; [6]) was 97.6% and the “Measured fresh weight survival rate (%) - E” value (Aegilops tauschii; [6]) was 2.4%. The “Measured fresh weight inhibition rate (%)” value (Bromus japonicus; [1]) was 45.4%, the “Measured fresh weight survival rate (%) - E” value (Bromus japonicus; [1]) was 54.6% and the “Measured fresh weight inhibition rate (%)” value (Bromus japonicus; [2]) was 86.6%. The “Measured fresh weight survival rate (%) - E” value (Bromus japonicus; [2]) was 13.4%, the “Measured fresh weight inhibition rate (%)” value (Bromus japonicus; [3]) was 100.0% and the “Measured fresh weight survival rate (%) - E” value (Bromus japonicus; [3]) was 0.0%. For the same compound, the “Measured fresh weight inhibition rate (%)” value (Bromus japonicus; [4]) was 100.0%, the “Measured fresh weight survival rate (%) - E” value (Bromus japonicus; [4]) was 0.0% and the “Measured fresh weight inhibition rate (%)” value (Bromus japonicus; [5]) was 100.0%. For the same compound, the “Measured fresh weight survival rate (%) - E” value (Bromus japonicus; [5]) was 0.0%.
